From patent publication US6638956B2, “Pesticidal 1-arylpyrazoles” (Rhone-Poulenc, Inc., priority 1996, dated 2003)
Where “and” joins values, the source holds several entries; their conditions need not be identical. Equal values may be shown once.

melting point	Compound
204 to 206 °C	CC[S+]([O-])c1c(C=NO)nn(-c2c(Cl)cc(OC(F)(F)F)cc2Cl)c1N (stereo not shown) [Compound 37, 5-Amino-1-[2,6-dichloro-4-(trifluoromethoxy)phenyl]-4-ethylsulfinyl-1H-pyrazole-3-carboxaldehyde oxime]
210 °C	C[S+]([O-])c1c(C(=N)NN)nn(-c2c(Cl)cc(C(F)(F)F)cc2Cl)c1N (stereo not shown) [Compound 69, 5-Amino-1-[2,6-dichloro-4-(trifluoromethyl)phenyl]-4-methylsulfinyl-N-amino-1H-pyrazole-3-carboximidamide]
209.5 to 211 °C (dec.)	CS(=O)(=O)c1c(C=NO)nn(-c2c(Cl)cc(C(F)(F)F)cc2Cl)c1N [Compound 16, 5-Amino-1-[2,6-dichloro-4-(trifluoromethyl)phenyl]-4-methylsulfonyl-1H-pyrazole-3-carboxaldehyde oxime]
198 to 200 °C	C[S+]([O-])c1c(C(=N)NO)nn(-c2c(Cl)cc(OC(F)(F)F)cc2Cl)c1N (stereo not shown) [Compound 45, 5-Amino-1-[2,6-dichloro-4-(trifluoromethoxy)phenyl]-N-hydroxy-4-methylsulfinyl-1H-pyrazole-3-carboximidamide]
158 to 161 °C	CCNc1c([S+](C)[O-])c(C=NO)nn1-c1c(Cl)cc(C(F)(F)F)cc1Cl (stereo not shown) [Compound 2, 1-[2,6-Dichloro-4-(trifluoromethyl)phenyl]-5-ethylamino-4-methylsulfinyl-1H-pyrazole-3-carboxaldehyde oxime]
52 to 54 °C	CCOC(=O)C(C)C(=O)ON=Cc1nn(-c2c(Cl)cc(C(F)(F)F)cc2Cl)c(N)c1[S+](C)[O-] (stereo not shown) [Compound 13, 5-Amino-1-[2,6-dichloro-4-(trifluoromethyl)phenyl]-4-methylsulfinyl-1H-pyrazole-3-carboxaldehyde O-[2-(ethoxycarbonyl)propionyl]oxime]
107 to 111 °C	N=C(NO)c1nn(-c2c(Cl)cc(C(F)(F)F)cc2Cl)c(N)c1S(=O)(=O)CCF [Compound 52, 5-Amino-1-[2,6-dichloro-4-(trifluoromethyl)phenyl]-N-hydroxy-4-(2-fluoroethylsulfonyl)-1H-pyrazole-3-carboximidamide]
150 to 151 °C	C[S+]([O-])CCNc1c([S+](C)[O-])c(C(=N)NO)nn1-c1c(Cl)cc(C(F)(F)F)cc1Cl (stereo not shown) [Compound 65, 1-[2,6-Dichloro-4-(trifluoromethyl)phenyl]-4-methylsulfinyl-5-[2-(methylsulfinyl)ethylamino]-N-hydroxy-1H-pyrazole-3-carboximidamide]
108 to 109 °C	CC[S+]([O-])c1c(C(=N)NO)nn(-c2c(Cl)cc(C(F)(F)F)cc2Cl)c1NCC[S+](C)[O-] (stereo not shown) [Compound 64, 1-[2,6-Dichloro-4-(trifluoromethyl)phenyl]-4-ethylsulfinyl-5-[2-(methylsulfinyl)ethylamino]-N-hydroxy-1H-pyrazole-3-carboximidamide]
122 °C	CCCCCCCC(=O)NNC(=N)c1nn(-c2c(Cl)cc(C(F)(F)F)cc2Cl)c(N)c1[S+](C)[O-] (stereo not shown) [Compound 71, 5-Amino-1-[2,6-dichloro-4-(trifluoromethyl)phenyl]-4-methylsulfinyl-N-(n-heptylcarbonyl)amino-1H-pyrazole-3-carboximidamide]
139 to 142 °C	CN=C(NOC)c1nn(-c2c(Cl)cc(C(F)(F)F)cc2Cl)c(N)c1[S+](C)[O-] (stereo not shown) [Compound 50, 5-Amino-1-[2,6-dichloro-4-(trifluoromethyl)phenyl]-N-methoxy-N′-methyl-4-methylsulfinyl-1H-pyrazole-3-carboximidamide]
191 to 192 °C	CNc1c([S+](C)[O-])c(C(=N)NO)nn1-c1c(Cl)cc(C(F)(F)F)cc1Cl (stereo not shown) [Compound 55, 1-[2,6-Dichloro-4-(trifluoromethyl)phenyl]-N-hydroxy-5-methylamino-4-methylsulfinyl-1H-pyrazole-3-carboximidamide]
131 to 134 °C	C[S+]([O-])c1c(C(=N)NO)nn(-c2c(Cl)cc(C(F)(F)F)cc2Cl)c1NCCS(=O)(=O)c1ccccc1 (stereo not shown) [Compound 60, 1-[2,6-Dichloro-4-(trifluoromethyl)phenyl]-4-methylsulfinyl-5-[2-(phenylsulfonyl)ethylamino]-N-hydroxy-1H-pyrazole-3-carboximidamide]
192 to 193 °C	CCNc1c([S+](C)[O-])c(C(=N)NO)nn1-c1c(Cl)cc(C(F)(F)F)cc1Cl (stereo not shown) [Compound 56, 1-[2,6-Dichloro-4-(trifluoromethyl)phenyl]-5-ethylamino-N-hydroxy-4-methylsulfinyl-1H-pyrazole-3-carboximidamide]
210 to 214 °C	Cc1c([S+](C)[O-])c(C=NO)nn1-c1c(Cl)cc(C(F)(F)F)cc1Cl (stereo not shown) [Compound 30, 1-[2,6-Dichloro-4-(trifluoromethyl)phenyl]-5-methyl-4-methylsulfinyl-1H-pyrazole-3-carboxaldehyde oxime]
146 to 147 °C	CNC(=O)ON=Cc1nn(-c2c(Cl)cc(C(F)(F)F)cc2Cl)c(N)c1[S+](C)[O-] (stereo not shown)
170 to 175 °C	CCSc1c(C(=N)NO)nn(-c2c(Cl)cc(C(F)(F)F)cc2Cl)c1N [Compound 43, 5-Amino-1-[2,6-dichloro-4-(trifluoromethyl)phenyl]-N-hydroxy-4-ethylthio-1H-pyrazole-3-carboximidamide]

melting point	Compound
155 to 157 °C	CCSc1c(C=NO)nn(-c2c(Cl)cc(C(F)(F)F)cc2Cl)c1C [Compound 33, 1-[2,6-Dichloro-4-(trifluoromethyl)phenyl]-4-ethylthio-5-methyl-1H-pyrazole-3-carboxaldehyde oxime]
119 to 120 °C	C[S+]([O-])c1c(C(=N)NO)nn(-c2c(Cl)cc(C(F)(F)F)cc2Cl)c1NCC(N)=O (stereo not shown) [Compound 59, 5-(Aminocarbonylmethylamino)-1-[2,6-dichloro-4-(trifluoromethyl)phenyl]-N-hydroxy-4-methylsulfinyl-1H-pyrazole-3-carboximidamide]
178 to 181 °C	CSc1c(C=NO)nn(-c2c(Cl)cc(C(F)(F)F)cc2Cl)c1N(C)C [Compound 36, 1-[2,6-Dichloro-4-(trifluoromethyl)phenyl]-5-dimethylamino-4-methylthio-1H-pyrazole-3-carboxaldehyde oxime]
238 to 239 °C	C[S+]([O-])c1c(C(=N)NO)nn(-c2ccc(C(F)(F)F)cc2Cl)c1N (stereo not shown) [Compound 68, 5-Amino-1-[2-chloro-4-(trifluoromethyl)phenyl]-4-methylsulfinyl-N-hydroxy-1H-pyrazole-3-carboximidamide]
225 to 227 °C and 225 to 226 °C	C[S+]([O-])c1c(C(=N)NO)nn(-c2c(Cl)cc(C(F)(F)F)cc2Cl)c1N (stereo not shown) [Compound 44, 5-Amino-1-[2,6-dichloro-4-(trifluoromethyl)phenyl]-N-hydroxy-4-methylsulfinyl-1H-pyrazole-3-carboximidamide]
107 to 110 °C	Cc1ccccc1C(=O)ON=Cc1nn(-c2c(Cl)cc(C(F)(F)F)cc2Cl)c(N)c1[S+](C)[O-] (stereo not shown) [Compound 11, 5-Amino-1-[2,6-dichloro-4-(trifluoromethyl)phenyl]-4-methylsulfinyl-1H-pyrazole-3-carboxaldehyde O-(2-methylbenzoyl)oxime]
171 to 173 °C	COC(=O)ON=Cc1nn(-c2c(Cl)cc(C(F)(F)F)cc2Cl)c(N)c1SC [Compound 15, 5-Amino-1-[2,6-dichloro-4-(trifluoromethyl)phenyl]-4-methylthio-1H-pyrazole-3-carboxaldehyde O-(methoxycarbonyl)oxime]
160 to 162.5 °C	CSc1c(C=NO)nn(-c2c(Cl)cc(C(F)(F)F)cc2Cl)c1C [Compound 29, 1-[2,6-Dichloro-4-(trifluoromethyl)phenyl]-5-methyl-4-methylthio-1H-pyrazole-3-carboxaldehyde oxime]
130 to 134 °C	CC(=O)ON=Cc1nn(-c2c(Cl)cc(C(F)(F)F)cc2Cl)c(N)c1[S+](C)[O-] (stereo not shown) [Compound 10, 5-Amino-1-[2,6-dichloro-4-(trifluoromethyl)phenyl]-4-methylsulfinyl-1H-pyrazole-3-carboxaldehyde O-(acetyl)oxime]
240 to 241 °C	C[S+]([O-])C1=C(N)N(c2c(Br)cc(C(F)(F)F)cc2Br)N(O)C1C(=N)N (stereo not shown) [Compound 61, 5-Amino-1-[2,6-dibromo-4-(trifluoromethyl)phenyl]-4-methylsulfinyl-2-N-hydroxy-1H-pyrazole-3-carboximidamide]
150 to 154 °C	C[S+]([O-])c1c(C=NO[Si](C)(C)C(C)(C)C)nn(-c2c(Cl)cc(C(F)(F)F)cc2Cl)c1N (stereo not shown)
195 °C	CC[S+]([O-])c1c(C=NO)nn(-c2c(Cl)cc(C(F)(F)F)cc2Cl)c1N (stereo not shown) [Compound 5, 5-Amino-1-[2,6-dichloro-4-(trifluoromethyl)phenyl]-4-ethylsulfinyl-1H-pyrazole-3-carboxaldehyde oxime]
109 to 111 °C	CS(=O)(=O)c1c(C(=N)NO)nn(-c2c(Cl)cc(C(F)(F)F)cc2Cl)c1N [Compound 46, 5-Amino-1-[2,6-dichloro-4-(trifluoromethyl)phenyl]-N-hydroxy-4-methylsulfonyl-1H-pyrazole-3-carboximidamide]
219 to 221 °C (dec.)	C[S+]([O-])c1c(C=NO)nn(-c2c(Cl)cc(C(F)(F)F)cc2Cl)c1N (stereo not shown) [Compound 1, 5-Amino-1-[2,6-dichloro-4-(trifluoromethyl)phenyl]-4-methylsulfinyl-1H-pyrazole-3-carboxaldehyde oxime]
212 to 215 °C	N=C(NO)c1nn(-c2c(Cl)cc(C(F)(F)F)cc2Cl)c(N)c1[S+]([O-])CCF (stereo not shown) [Compound 51, 5-Amino-1-[2,6-dichloro-4-(trifluoromethyl)phenyl]-N-hydroxy-4-(2-fluoroethylsulfinyl)-1H-pyrazole-3-carboximidamide]
80 °C	CON=Cc1nn(-c2c(Cl)cc(C(F)(F)F)cc2Cl)c(N)c1[S+](C)[O-] (stereo not shown) [Compound 17, 5-Amino-1-[2,6-dichloro-4-(trifluoromethyl)phenyl]-4-methylsulfinyl-1H-pyrazole-3-carboxaldehyde O-(methyl)oxime]
239 to 240 °C	C[S+]([O-])c1cn(-c2c(Cl)cc(C(F)(F)F)cc2Cl)nc1C=NO (stereo not shown) [Compound 20, 1-[2,6-Dichloro-4-(trifluoromethyl)phenyl]-4-methylsulfinyl-1H-pyrazole-3-carboxaldehyde oxime]
